Converted amounts (≈) assume the structure as drawn.
What was measured:
Candida tropicalis = experiment: Inhibition of Candida tropicalis ATCC 750 chitin synthase using […] as substrate at 300 ug/ml incubated for 1 hr by absorbance based assay relative to control; conditions: dose 300.0 µg/ml
[1] = Inhibition of Candida tropicalis ATCC 750 chitin synthase using UDP-GlcNAc as substrate incubated for 1 hr by absorbance based assay
Candida albicans [2] = experiment: Antifungal activity against Candida albicans ATCC 76615 assessed as fungal growth inhibition incubated for 24 hrs by two-fold serial dilution method; type: functional
Aspergillus flavus [3] = experiment: Antifungal activity against Aspergillus flavus ATCC 16870 assessed as fungal growth inhibition incubated for 24 hrs by two-fold serial dilution method; type: functional
Aspergillus fumigatus [4] = experiment: Antifungal activity against Aspergillus fumigatus GIMCC 3.19 assessed as fungal growth inhibition incubated for 24 hrs by two-fold serial dilution method; type: functional
Cryptococcus neoformans [5] = experiment: Antifungal activity against Cryptococcus neoformans ATCC 32719 assessed as fungal growth inhibition incubated for 24 hrs by two-fold serial dilution method; type: functional
Aspergillus flavus [6] = experiment: Antifungal activity against Aspergillus flavus ATCC 16870 assessed as inhibition of cell wall synthesis incubated for 24 hrs in presence of sorbitol; type: functional
Candida albicans [7] = experiment: Antifungal activity against Candida albicans ATCC 76615 assessed as inhibition of cell wall synthesis incubated for 24 hrs in presence of sorbitol; type: functional
Aspergillus fumigatus [8] = experiment: Antifungal activity against Aspergillus fumigatus GIMCC 3.19 assessed as inhibition of cell wall synthesis incubated for 24 hrs in presence of sorbitol; type: functional
Cryptococcus neoformans [9] = experiment: Antifungal activity against Cryptococcus neoformans ATCC 32719 assessed as inhibition of cell wall synthesis incubated for 24 hrs in presence of sorbitol; type: functional
Candida albicans [10] = experiment: Antifungal activity against Fluconazole-resistant Candida albicans ATCC 76615R assessed as fungal growth inhibition; type: functional
Aspergillus flavus [11] = experiment: Antifungal activity against Fluconazole-resistant Aspergillus flavus ATCC 16870R assessed as fungal growth inhibition; type: functional
Aspergillus fumigatus [12] = experiment: Antifungal activity against Fluconazole-resistant Aspergillus fumigatus GIMCC 3.19R assessed as fungal growth inhibition; type: functional
Cryptococcus neoformans [13] = experiment: Antifungal activity against Fluconazole-resistant Cryptococcus neoformans ATCC 32719R assessed as fungal growth inhibition; type: functional
Candida albicans [14] = experiment: Antifungal activity against Micafungin-resistant Candida albicans ATCC 76615R assessed as fungal growth inhibition; type: functional
Candida albicans [15] = experiment: Synergistic antifungal activity against Candida albicans ATCC 76615 assessed as fluconazole MIC incubated for 24 hrs in by checkerboard broth microdilution method; type: functional
Aspergillus fumigatus [16] = experiment: Synergistic antifungal activity against Aspergillus fumigatus GIMCC 3.19 assessed as polyoxin B MIC incubated for 24 hrs by checkerboard broth microdilution method; type: functional
Aspergillus flavus [17] = experiment: Synergistic antifungal activity against Aspergillus flavus ATCC 16870 assessed as fluconazole MIC incubated for 24 hrs in by checkerboard broth microdilution method; type: functional
Aspergillus fumigatus [18] = experiment: Synergistic antifungal activity against Aspergillus fumigatus GIMCC 3.19 assessed as fluconazole MIC incubated for 24 hrs in by checkerboard broth microdilution method; type: functional
Cryptococcus neoformans [19] = experiment: Synergistic antifungal activity against Cryptococcus neoformans ATCC 32719 assessed as fluconazole MIC incubated for 24 hrs in by checkerboard broth microdilution method; type: functional
Candida albicans [20] = experiment: Synergistic antifungal activity against Candida albicans ATCC 76615 assessed as polyoxin B MIC incubated for 24 hrs by checkerboard broth microdilution method; type: functional
Aspergillus flavus [21] = experiment: Synergistic antifungal activity against Aspergillus flavus ATCC 16870 assessed as polyoxin B MIC incubated for 24 hrs by checkerboard broth microdilution method; type: functional
Cryptococcus neoformans [22] = experiment: Synergistic antifungal activity against Cryptococcus neoformans ATCC 32719 assessed as polyoxin B MIC incubated for 24 hrs in by checkerboard broth microdilution method; type: functional
Candida albicans [23] = experiment: Additive antifungal activity against Candida albicans ATCC 76615 assessed as fractional inhibitory concentration index incubated for 24 hrs in presence of fluconazole by checkerboard broth microdilution method; type: functional
Cryptococcus neoformans [24] = experiment: Additive antifungal activity against Cryptococcus neoformans ATCC 32719 assessed as fractional inhibitory concentration index incubated for 24 hrs in presence of fluconazole by checkerboard broth microdilution method; type: functional
Aspergillus fumigatus [25] = experiment: Synergistic antifungal activity against Aspergillus fumigatus GIMCC 3.19 assessed as fractional inhibitory concentration index incubated for 24 hrs in presence of fluconazole by checkerboard broth microdilution method; type: functional
Candida albicans [26] = experiment: Synergistic antifungal activity against Candida albicans ATCC 76615 assessed as fractional inhibitory concentration index incubated for 24 hrs in presence of polyoxin B by checkerboard broth microdilution method; type: functional
Aspergillus flavus [27] = experiment: Additive antifungal activity against Aspergillus flavus ATCC 16870 assessed as fractional inhibitory concentration index incubated for 24 hrs in presence of polyoxin B by checkerboard broth microdilution method; type: functional
Aspergillus fumigatus [28] = experiment: Synergistic antifungal activity against Aspergillus fumigatus GIMCC 3.19 assessed as fractional inhibitory concentration index incubated for 24 hrs in presence of polyoxin B by checkerboard broth microdilution method; type: functional
Cryptococcus neoformans [29] = experiment: Additive antifungal activity against Cryptococcus neoformans ATCC 32719 assessed as fractional inhibitory concentration index incubated for 24 hrs in presence of polyoxin B by checkerboard broth microdilution method; type: functional
Candida albicans [30] = experiment: Antifungal activity against Candida albicans ATCC 76615 assessed as inhibition of cell wall synthesis incubated for 24 hrs in absence of sorbitol; type: functional
Aspergillus flavus [31] = experiment: Antifungal activity against Aspergillus flavus ATCC 16870 assessed as inhibition of cell wall synthesis incubated for 24 hrs in absence of sorbitol; type: functional
Aspergillus fumigatus [32] = experiment: Antifungal activity against Aspergillus fumigatus GIMCC 3.19 assessed as inhibition of cell wall synthesis incubated for 24 hrs in absence of sorbitol; type: functional
Cryptococcus neoformans [33] = experiment: Antifungal activity against Cryptococcus neoformans ATCC 32719 assessed as inhibition of cell wall synthesis incubated for 24 hrs in absence of sorbitol; type: functional
Aspergillus flavus [34] = experiment: Synergistic antifungal activity against Aspergillus flavus ATCC 16870 assessed as fractional inhibitory concentration index incubated for 24 hrs in presence of fluconazole by checkerboard broth microdilution method; type: functional
Aspergillus flavus [35] = experiment: Additive antifungal activity against Aspergillus flavus ATCC 16870 assessed as fractional inhibitory concentration index incubated for 24 hrs in presence of fluconazole by checkerboard broth microdilution method; type: functional
Aspergillus fumigatus [36] = experiment: Additive antifungal activity against Aspergillus fumigatus GIMCC 3.19 assessed as fractional inhibitory concentration index incubated for 24 hrs in presence of fluconazole by checkerboard broth microdilution method; type: functional
Aspergillus fumigatus [37] = experiment: Additive antifungal activity against Aspergillus fumigatus GIMCC 3.19 assessed as fractional inhibitory concentration index incubated for 24 hrs in presence of polyoxin B by checkerboard broth microdilution method; type: functional

SMILES	inhibition (Candida tropicalis)	IC50 [1]	MIC (Candida albicans [2])	MIC (Aspergillus flavus [3])	MIC (Aspergillus fumigatus [4])	MIC (Cryptococcus neoformans [5])	MIC (Aspergillus flavus [6])	MIC (Candida albicans [7])	MIC (Aspergillus fumigatus [8])	MIC (Cryptococcus neoformans [9])	MIC (Candida albicans [10])	MIC (Aspergillus flavus [11])	MIC (Aspergillus fumigatus [12])	MIC (Cryptococcus neoformans [13])	MIC (Candida albicans [14])	MIC (Candida albicans [15])	MIC (Aspergillus fumigatus [16])	MIC (Aspergillus flavus [17])	MIC (Aspergillus fumigatus [18])	MIC (Cryptococcus neoformans [19])	other results
O=C(/C=C/C(=O)Nc1ccccc1[N+](=O)[O-])Nc1ccc2c(c1)C(=O)NC1(CCSC1)N2 (stereo not given)	81.9%	102 µM	1 µg/mL (≈ 2.21 µM)	1 µg/mL (≈ 2.21 µM)	1 µg/mL (≈ 2.21 µM)	4 µg/mL (≈ 8.82 µM)	128 µg/mL	128 µg/mL	64 µg/mL	128 µg/mL	8 µg/mL (≈ 17.6 µM)	16 µg/mL (≈ 35.3 µM)	8 µg/mL (≈ 17.6 µM)	8 µg/mL (≈ 17.6 µM)	8 µg/mL (≈ 17.6 µM)	2 µg/mL	2 µg/mL	2 µg/mL	1 µg/mL	0.5 µg/mL	MIC (Candida albicans [20]): 4 µg/mL; MIC (Aspergillus flavus [21]): 16 µg/mL; MIC (Cryptococcus neoformans [22]): 16 µg/mL; fractional inhibitory concentration index (FICI) (Candida albicans [23]): 1.125; fractional inhibitory concentration index (FICI) (Cryptococcus neoformans [24]): 1.125; fractional inhibitory concentration index (FICI) (Aspergillus fumigatus [25]): 0.375; fractional inhibitory concentration index (FICI) (Candida albicans [26]): 0.75; fractional inhibitory concentration index (FICI) (Aspergillus flavus [27]): 1.125; fractional inhibitory concentration index (FICI) (Aspergillus fumigatus [28]): 0.625; fractional inhibitory concentration index (FICI) (Cryptococcus neoformans [29]): 1.5; MIC (Candida albicans [30]): 8 µg/mL (≈ 17.6 µM); MIC (Aspergillus flavus [31]): 8 µg/mL (≈ 17.6 µM); MIC (Aspergillus fumigatus [32]): 4 µg/mL (≈ 8.82 µM); MIC (Cryptococcus neoformans [33]): 8 µg/mL (≈ 17.6 µM); fractional inhibitory concentration index (FICI) (Aspergillus flavus [34]): 1
Cc1ccc([N+](=O)[O-])cc1NC(=O)/C=C/C(=O)Nc1ccc2c(c1)C(=O)NC1(CCSC1)N2 (stereo not given)	77.4%	123 µM	2 µg/mL (≈ 4.28 µM)	16 µg/mL (≈ 34.2 µM)	16 µg/mL (≈ 34.2 µM)	8 µg/mL (≈ 17.1 µM)	256 µg/mL	128 µg/mL	128 µg/mL	128 µg/mL	16 µg/mL (≈ 34.2 µM)	32 µg/mL (≈ 68.4 µM)	16 µg/mL (≈ 34.2 µM)	32 µg/mL (≈ 68.4 µM)	16 µg/mL (≈ 34.2 µM)	2 µg/mL	2 µg/mL	1 µg/mL	1 µg/mL	2 µg/mL	MIC (Candida albicans [20]): 2 µg/mL; MIC (Aspergillus flavus [21]): 2 µg/mL; MIC (Cryptococcus neoformans [22]): 16 µg/mL; fractional inhibitory concentration index (FICI) (Candida albicans [23]): 1.5; fractional inhibitory concentration index (FICI) (Aspergillus flavus [35]): 1.25; fractional inhibitory concentration index (FICI) (Cryptococcus neoformans [24]): 1.5; fractional inhibitory concentration index (FICI) (Candida albicans [26]): 0.5; fractional inhibitory concentration index (FICI) (Aspergillus flavus [27]): 1.125; fractional inhibitory concentration index (FICI) (Cryptococcus neoformans [29]): 1.5; MIC (Candida albicans [30]): 8 µg/mL (≈ 17.1 µM); MIC (Aspergillus flavus [31]): 16 µg/mL (≈ 34.2 µM); MIC (Aspergillus fumigatus [32]): 16 µg/mL (≈ 34.2 µM); MIC (Cryptococcus neoformans [33]): 16 µg/mL (≈ 34.2 µM); fractional inhibitory concentration index (FICI) (Aspergillus fumigatus [36]): 1.125; fractional inhibitory concentration index (FICI) (Aspergillus fumigatus [37]): 1.125

— ChEMBL document CHEMBL5365394, “Design, synthesis and biological evaluation of novel spiro-quinazolinone derivatives as chitin synthase inhibitors and antifungal agents” (Eur J Med Chem, 2023)
